The text below walks through data of patent US20240342273A1, “IMMUNOTHERAPEUTIC METHOD FOR INCREASING CASHEW TOLERANCE IN A SUBJECT” (DBV Technologies, priority 2021, published 2024).

Entries after “also recorded” stand apart in the source; their conditions may differ.

The subject of assay [1] is cashew-sensitized mice. In words: Oral cashew challenge after 8 weeks of EPIT (anaphylaxis: body temperature, clinical symptoms, mMCP-1). The following applies: Tregitope co-administered with cashew allergen extract by epicutaneous route, cashew-sensitized mouse model.
Assay [2] concerns re-stimulated splenocytes. The assay can be described thus: In vitro culture of spleen cells with or without cashew stimulation (proliferation, cytokine production). Format: cell-based, mice. The following applies: splenocytes after 8 weeks of EPIT. How it is done: (§1) Sensitized mice were then treated by epicutaneous immunotherapy using Viaskin patches: • 10 mice were treated with viaskin containing excipient (Phosphate buffer 0.1 M+DMSO) • 10 mice were treated with viaskin containing 50 μg cashew protein (Stallergenes Greer, ref XPF84D3A2.5), • 10 mice were treated with viaskin containing 50 μg cashew protein+50 μg T1 • 10 mice were treated with viaskin containing 50 μg cashew protein+50 μg T2 • 10 mice were treated with viaskin containing 50 μg cashew protein+50 μg T3 • 10 mice were treated with viaskin containing 50 μg cashew protein+50 μg T1+50 μg T2+50 μg T3 • 10 mice were treated with viaskin containing 50 μg T1+50 μg T2+50 μg T3 m Tregitopes T1, T2 and T3 correspond to the homologs of human Tregitopes of SEQ ID NO: 1, SEQ ID NO:2 and SEQ ID NO:3, respectively. The N-terminus of the tested peptides was acetylated (CH3(C═O)—) while the C-terminus was amidated (—NH2) to prevent degradation by protease. […]
(§2) Anaphylactic reactions were characterized by a drop in body temperature and the occurrence of clinical symptoms. […] Cashew-specific IgE, IgG1 and IgG2a were measured by in house ELISA. […]

In assay [3] the test system is CD62L+/FoxP3+ Tregs. In words: Phenotyping of Tregs by FACS in spleen and brachial lymph nodes. The class given is in vivo, mice. The following applies: after 8 weeks of EPIT; Tregitope co-administered with cashew. How it is done: as §1, §2

As for “T2: mTregitope from IgG1 (CH), EEQFNSTFRSVSELPIMHQ, homolog of human Tregitope SEQ ID NO: 2 (Ac-EEQFNSTFRSVSELPIMHQ-NH2) [Tregitope T2]”, the “potentiation of the efficacy of EPIT for providing tolerance to cashew” value in assay [1] is given as “clearly potentiate; also recorded: particularly marked”. In assay [2], the “Th2 cytokines (IL-4) in re-stimulated splenocytes (FIG. 2D)” value is “down-modulation” and the “cashew specific T-cell proliferation (FIG. 2C)” value is given as “reduced”. Further, in assay [3], the “numbers of CD62L+/FoxP3+ Tregs in skin-draining lymph nodes (FIG. 2B)” value was “increase” and the “numbers of CD62L+/FoxP3+ Tregs in spleens (FIG. 2A)” value is given as “increase”.
